target: T1, procaspase-6 (Homo sapiens, UniProt P55212); experiment: SPR binding affinity for procaspase-6 (avi-tagged, biotinylated construct on neutravidin chip, Biacore 8K); conditions: binding affinities for procaspase-6, SPR
T1 sequence (P55212 1-293): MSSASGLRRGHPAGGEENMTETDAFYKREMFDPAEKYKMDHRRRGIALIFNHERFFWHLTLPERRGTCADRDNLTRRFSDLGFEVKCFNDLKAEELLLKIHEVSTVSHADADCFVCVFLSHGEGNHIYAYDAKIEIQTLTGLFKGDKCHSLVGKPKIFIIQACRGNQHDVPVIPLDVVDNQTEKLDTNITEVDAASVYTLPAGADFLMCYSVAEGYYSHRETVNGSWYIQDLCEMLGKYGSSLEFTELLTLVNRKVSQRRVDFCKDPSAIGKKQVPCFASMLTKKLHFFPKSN
Description: We used SPR to assess the binding affinity of test compounds, using an avi-tagged (biotinylated) procaspase-6 construct that was captured onto a neutravidin-coated sensor chip in a Biacore 8K instrument. […] The average of the triplicate KD values for each analog was furthermore used to calculate the experimental binding energies (ΔG) provided in the figures that follow.

Row | SMILES | Kd
1 | c1ccc(-c2cccnc2NCc2cccc3cnoc23)nc1 [ELG-000567, N-(benzo[d]isoxazol-7-ylmethyl)-[2,3′-bipyridin]-2′-amine] | 50 to 100 µM
2 | c1cnc(NCc2cccc3ccsc23)c(-c2ncc[nH]2)c1 [ELG-000534, N-(benzo[b]thiophen-7-ylmethyl)-3-(1H-imidazol-2-yl)pyridin-2-amine] | > 100 µM
3 | Fc1ccc(CNc2ncccc2-c2ccccn2)c2occc12 [ELG-000469, N-((4-fluorobenzofuran-7-yl)methyl)-[2,3′-bipyridin]-2′-amine] | 50 to 100 µM
4 | c1ccc(-c2cccnc2NCc2cccc3ccoc23)nc1 [ELG-000468, N-(benzofuran-7-ylmethyl)-[2,3′-bipyridin]-2′-amine] | 50 to 100 µM
5 | Fc1ccc(CNc2ncccc2-c2ccccn2)c2sccc12 [ELG-000518] | 50 to 100 µM
6 | c1cnc(NCc2cccc3ocnc23)c(-c2ncc[nH]2)c1 [ELG-000537, N-(benzo[d]oxazol-4-ylmethyl)-3-(1H-imidazol-2-yl)pyridin-2-amine] | 50 to 100 µM
7 | c1cnc(NCc2cccc3cnoc23)c(-c2ncc[nH]2)c1 [ELG-000560, N-(benzo[d]isoxazol-7-ylmethyl)-3-(1H-imidazol-2-yl)pyridin-2-amine] | 10 to 50 µM
8 | c1cnnc(-c2cccnc2NCc2cccc3ccoc23)c1 [ELG-000488, N-(benzofuran-7-ylmethyl)-3-(pyridazin-3-yl) pyridin-2-amine] | 10 to 50 µM
9 | c1cnc(NCc2cccc3ccoc23)c(-c2ncc[nH]2)c1 [ELG-000535] | 50 to 100 µM
10 | c1ccc(-c2cccnc2NCc2cccc3ocnc23)nc1 [ELG-000497] | 50 to 100 µM
11 | c1cnc(NCc2cccc3scnc23)c(-c2ncc[nH]2)c1 [ELG-000531, N-(benzo[d]thiazol-4-ylmethyl)-3-(1H-imidazol-2-yl)pyridin-2-amine] | 50 to 100 µM
12 | c1cnc(NCc2cccc3cc[nH]c23)c(-c2ncc[nH]2)c1 [ELG-000523, N-((1H-indol-7-yl)methyl)-3-(1H-imidazol-2-yl)pyridin-2-amine] | 10 to 50 µM
13 | Fc1ccc(CNc2ncccc2-c2ncc[nH]2)c2ncsc12 [ELG-000526, N-((7-fluorobenzo[d]thiazol-4-yl)methyl)-3-(1H-imidazol-2-yl)pyridin-2-amine] | 10 to 50 µM
14 | c1ccc(-c2cccnc2NCc2cccc3ccsc23)nc1 [ELG-000510, N-(benzo[b]thiophen-7-ylmethyl)-[2,3′-bipyridin]-2′-amine] | 50 to 100 µM
15 | c1ccc(-c2cccnc2NCc2cccc3scnc23)nc1 [ELG-000511] | 50 to 100 µM
16 | c1cnc(NCc2cccc3cnsc23)c(-c2ncc[nH]2)c1 [ELG-000558] | 50 to 100 µM
17 | Fc1ccc(CNc2ncccc2-c2ncc[nH]2)c2sncc12 [ELG-000548] | 50 to 100 µM
18 | c1ccc(-c2cccnc2NCc2cccc3cc[nH]c23)nc1 [ELG-000463] | 50 to 100 µM
19 | c1ccc(-c2cccnc2NCc2cccc3cnsc23)nc1 [ELG-000552, N-(benzo[d]isothiazol-7-ylmethyl)-[2,3′-bipyridin]-2′-amine] | 50 to 100 µM
20 | Fc1ccc(CNc2ncccc2-c2ncc[nH]2)c2sccc12 [ELG-000530, N-((4-fluorobenzo[b]thiophen-7-yl)methyl)-3-(1H-imidazol-2-yl)pyridin-2-amine] | 10 to 50 µM

Next, values leading:

Row | Kd | SMILES
21 | < 10 µM | Fc1ccc(CNc2ncccc2-c2cccnn2)c2[nH]ccc12 [ELG-000504, N-((4-fluoro-1H-indol-7-yl)methyl)-3-(pyridazin-3-yl)pyridin-2-amine]
22 | < 10 µM | Fc1ccc(CNc2ncccc2-c2cccnn2)c2sccc12 [ELG-000515, N-((4-fluorobenzo[b]thiophen-7-yl)methyl)-3-(pyridazin-3-yl)pyridin-2-amine]
23 | < 10 µM | c1cnnc(-c2cccnc2NCc2cccc3scnc23)c1 [ELG-000507, N-(benzo[d]thiazol-4-ylmethyl)-3-(pyridazin-3-yl)pyridin-2-amine]
24 | < 10 µM | Fc1ccc(CNc2ncccc2-c2ncc[nH]2)c2[nH]ncc12 [ELG-000525, N-((4-fluoro-1H-indazol-7-yl)methyl)-3-(1H-imidazol-2-yl)pyridin-2-amine]
25 | 50 to 100 µM | Fc1ccc(CNc2ncccc2-c2ccccn2)c2[nH]ccc12 [ELG-000483]
26 | 10 to 50 µM | Fc1ccc(CNc2ncccc2-c2ncc[nH]2)c2[nH]ccc12 [ELG-000536, N-((4-fluoro-1H-indol-7-yl)methyl)-3-(1H-imidazol-2-yl)pyridine-2-amine]
27 | 50 to 100 µM | c1ccc(-c2cccnc2NCc2cccc3cn[nH]c23)nc1 [ELG-000472, N-((1H-indazol-7-yl)methyl)-[2,3′-bipyridin]-2′-amine]
28 | 50 to 100 µM | c1cnnc(-c2cccnc2NCc2cccc3cnoc23)c1 [ELG-000563]
29 | 10 to 50 µM | c1cnnc(-c2cccnc2NCc2cccc3ccsc23)c1 [ELG-000502, N-(benzo[b]thiophen-7-ylmethyl)-3-(pyridazin-3-yl)pyridin-2-amine]
30 | > 100 µM | Fc1ccc(CNc2ncccc2-c2ccccn2)c2sncc12 [ELG-000549, N-((4-fluorobenzo[d]isothiazol-7-yl)methyl)-[2,3′-bipyridin]-2′-amine]
31 | < 10 µM | Fc1ccc(CNc2ncccc2-c2cccnn2)c2[nH]ncc12 [ELG-000506, N-((4-fluoro-1H-indazol-7-yl)methyl)-3-(pyridazin-3-yl)pyridin-2-amine]
32 | < 10 µM | Fc1ccc(CNc2ncccc2-c2ccccn2)c2[nH]ncc12 [ELG-000499, N-((4-fluoro-1H-indazol-7-yl)methyl)-[2,3′-bipyridin]-2′-amine]
33 | < 10 µM | Fc1ccc(CNc2ncccc2-c2cccnn2)c2ncsc12 [ELG-000522, N-((7-fluorobenzo[d]thiazol-4-yl)methyl)-3-(pyridazin-3-yl)pyridin-2-amine]
34 | 10 to 50 µM | Fc1ccc(CNc2ncccc2-c2cccnn2)c2occc12 [ELG-000481, N-((4-fluorobenzofuran-7-yl)methyl)-3-(pyridazin-3-yl)pyridin-2-amine]
35 | 50 to 100 µM | c1cnnc(-c2cccnc2NCc2cccc3cnsc23)c1 [ELG-000559]
36 | 10 to 50 µM | Fc1ccc(CNc2ncccc2-c2cccnn2)c2sncc12 [ELG-000532, N-((4-fluorobenzo[d]isothiazol-7-yl)methyl)-3-(pyridazin-3-yl)pyridin-2-amine]
37 | < 10 µM | c1cnnc(-c2cccnc2NCc2cccc3ocnc23)c1 [ELG-000491, N-(benzo[d]oxazol-4-ylmethyl)-3-(pyridazin-3-yl)pyridin-2-amine]
38 | 10 to 50 µM | c1cnc(NCc2cccc3cn[nH]c23)c(-c2ncc[nH]2)c1 [ELG-000538, N-((1H-indazol-7-yl)methyl)-3-(1H-imidazol-2-yl)pyridin-2-amine]

From patent US20260200893A1, “INHIBITORS OF PROCASPASE-6 ACTIVATION AND USES THEREOF” (THE REGENTS OF THE UNIVERSITY OF CALIFORNIA, priority 2022, published 2026)
